# Test results published in US20170260169A1, “INHIBITORS FOR STEROID RESPONSE ELEMENTS AND RNA POLYMERASE II AND RELATED METHODS” (priority 2007, published 2017).
# Where two headings read alike, the source gives them in different places.
# Columns and labels:
# [1] = Multiple-dose subcutaneous injections, male C57BL/6J mice; format: in vivo; conditions: 1 mg/kg SC every 3 days
# Protocol: In addition to single dose injections, the effects of repeated dosing of polyamides 77-80 in mice were examined. In this experiment, 8 week-old male C57BL/6J mice (n=3 per dosing group) were treated with 1 mg/kg of polyamides 77-80 by subcutaneous injection every 3 days, for a cycle of three injections and then sacrificed two days after the final injection (FIG. 31A). As in the single dosing experiments, two mice per group were subjected to histopathology analysis and all blood samples were sent for analysis. […] These mice were promptly euthanized.
# Serum from treated animals were collected by retroorbital bleeding. […] All samples were sent for analysis at IDEXX-RADIL.
# [2] = Liver microsomal stability, human; conditions: 1 μM, Human, 1 hr at 37° C., 1 mg/ml microsomes
# Protocol: (§1) Briefly, each polyamide was incubated with 1 mg/ml human or mouse microsomes at 37° C. The reaction was incubated in 100 mM KH2PO4, 2 mM NADPH, 3 mM MgCl2 at pH 7.4. Samples were also incubated in the absence of NADPH to detect NADPH-free degradation. After 60 min the samples were mixed with an equal volume of ice cold methanol stop solution. The mixture was allowed to sit on ice for at least 10 min and mixed with an equal volume of water. The samples were then centrifuged to remove the precipitates and the samples were analyzed by LC/MS/MS. Data represents % remaining by comparing with time zero concentration. The experiments were performed in duplicate.
# [3] = Liver microsomal stability, mouse; conditions: 1 μM, Mouse, 1 hr at 37° C., 1 mg/ml microsomes
# Protocol: as §1
# [4] = Escalating single dose subcutaneous injections, male C57BL/6J mice (weight, histopathology, serum); conditions: for weight loss after single SC dose: 1, 3, 10 mg/kg, 9 days
# Protocol: Representative mice (n=2 per dosing group unless otherwise noted) were subjected to histopathology analysis by a veterinary pathologist. Blood from all mice was sampled and sent for analysis of serum markers of target organs. […] These mice were euthanized when significant duress was apparent.
# All animal experiments were conducted under an approved protocol at the California Institute of Technology. Animals were allowed to adjust for 3 days after arrival before treatment. […] Animals were monitored daily for weight loss over 9 days and sacrificed. […] Weight was recorded on days of injection and at the experiment endpoint.
# Sacrificed animals from weight loss experiments were fixed in 10% formalin and sent for histopathology analysis by IDEXX-RADIL. Histopathologic analysis was performed on the cecum, duodenum, heart, ileum, kidney, liver, lung, pancreas, spleen, and stomach. Tissue analysis was performed as a blind study to the identity of the animals.
# Serum from treated animals were collected by retroorbital bleeding. Blood samples were centrifuged at 6,000 rpm for 5 min to collect the serum. Serum ALT, AST, total bilirubin, BUN, and creatinine levels were sent for analysis by IDEXX-RADIL. Serum analysis was performed as a blind study to the identity of the animals.
# LNCaP cells = assay: Confocal microscopy of fluorescein polyamide uptake in LNCaP cells; format: cell-based; conditions: for nuclear localization in LNCaP cells: 2 μM, 24 hr
# Protocol: Cells were plated in 35 mm optical dishes (MatTek) and dosed with polyamide 86 at 1 μM for 24 hours with or without 1 μM MG132. Cells were then washed with PBS and imaged on a confocal microscope (Exciter, Zeiss) using a 63× oil immersion lens. Confocal imaging was performed following established protocols (33).
# To determine the biological activity of 78 in LNCaP cells we first looked for evidence nuclear localization using fluorescein analog 90. The fluorescein analog of 77, compound 88, was used as benchmark.
# [5] = Serum circulation after subcutaneous injection in C57BL/6 mice; format: in vivo; conditions: 10 mg/kg, male C57BL/6J
# Protocol: To investigate if polyamide 77 could be detected in peripheral blood after SC injections, 120 nmol of 77 (in 5% DMSO/PBS) was injected into the right flank of four C57BL/6 mice. Blood was collected from anesthetized mice via retroorbital collection at 5 minutes, 4 h, and 12 h after injection, then processed by methods previously described and analyzed by HPLC (35). For measurement of serum PSA (KLK3) and uric acid, blood was collected from anesthetized mice via retroorbital collection at experimental endpoint and serum was separated from blood by centrifugation. Serum PSA (KLK3) was measured by ELISA (R&D systems) according to manufacturer's instructions. Uric acid was measured as described (36).
# We synthesized four structurally related polyamides (FIG. 28) that have an identical Py-Im sequence ImPyPyPy-γ-ImPyPyPy-NHMe-IPA.
# [6] = Liver uptake of fluorescein-polyamide conjugates in mice; format: in vivo; conditions: 50 nmol (~3 mg/kg), 24 hours
# Protocol: Male C57BL/6J mice (n=2 per group) were injected with 50 nmol (˜3 mg/kg) of 88-91 and then sacrificed 24 hours later. Tissue was excised and processed as previously described (20). The tissues were excised and fixed in 10% Neutral Buffered Formalin for 48 hours. They were subsequently cryoprotected in 15% and 30% aqueous sucrose solution (w/v) for 24 hours each, embedded in a medium for frozen sections (Sakura) and frozen on dry ice. Fluorescence intensity in liver tissue was assessed by laser confocal microscopy in 10 μm thick sections on slides mounted with a ProLong antifade reagent (Invitrogen).
# [7] = test system: PSA mRNA expression in LNCaP cells; assay: DHT-induced PSA mRNA in LNCaP cells, quantitative real-time RT-PCR; format: cell-based; conditions: for inhibition of DHT-induced PSA expression: up to, at 10 μM, 1 nM DHT
# Protocol: LNCaP cells (ATCC) were plated in 24-well plates at a density of 40-50×10^3 cells per well (80-100×10^3 cells per ml) in RPMI medium 1640 (ATCC) supplemented with 10% FBS (Irvine Scientific, Santa Ana, Calif.). After 72 h, the medium was replaced with RPMI medium 1640 containing 10% charcoal stripped FBS with or without polyamides at the designated concentrations. Cells were grown for an additional 48 h and then treated with 1 nM DHT for 16 h. When appropriate, bicalutamide was added 2 h before DHT stimulation. Isolation of RNA and cDNA synthesis was performed as described (21). Quantitative real-time RT-PCR was performed with SYBR Green PCR Master Mix (Applied Biosystems, Foster City, Calif.) on an ABI 7300 instrument. PSA mRNA was measured relative to β-glucuronidase as an endogenous control.
# [8] = test system: FKBP5 mRNA expression in LNCaP cells; assay: DHT-induced FKBP5 mRNA in LNCaP cells; format: cell-based
# [9] = test system: transcripts in DHT-stimulated LNCaP cells; assay: Gene expression with Affymetrix Human Genome U133 Plus 2.0 arrays, DHT-stimulated LNCaP cells; format: cell-based
# Protocol: LNCaP cells were plated in 12-well plates at a density of 80-100×10^3 cells per well. Media, polyamide treatments, and time courses were the same as described above. Bicalutamide was added 2 h before DHT stimulation. RNA was isolated as described in ref. 21. From this point, experiments were carried out at the Millard and Muriel Jacobs Gene Expression Facility at the California Institute of Technology. Labeled mRNA was hybridized to Affymetrix high-density Human Genome U133 Plus 2.0 arrays according to established protocols. Gene expression was analyzed by using Resolver (Rosetta Biosoftware, Seattle, Wash.). Data were uploaded to the Gene Expression Omnibus repository (accession no. GSE7708).
# Global effects of polyamides 1 and 2 and bicalutamide on gene expression in DHT-stimulated LNCaP cells were monitored with Affymetrix (Santa Clara, Calif.) high-density Human Genome U133 Plus 2.0 arrays, which interrogate >50,000 transcripts.
# [10] = test system: PSA mRNA expression in LNAR cells; assay: PSA mRNA expression in LNAR cells (hormone refractory, over-express AR); format: cell-based
# Source text: The cell line LNAR was used, which has been engineered to over-express AR (14). LNAR cells over-express AR and form hormone refractory tumors when xenografted in mice (14).
# [11] = 10 μM, + DHT, relative to DHT-induced controls, p ≦ 0.01
# [12] = relative to DHT-induced controls, + DHT
smiles,measurement,setting,value
"CN(CCCNC(=O)c1cccc(C(=O)O)c1)CCCNC(=O)c1cc(NC(=O)c2cc(NC(=O)c3cc(NC(=O)c4nc(NC(=O)C[C@@H](N)CNC(=O)c5cc(NC(=O)c6cc(NC(=O)c7cc(NC(=O)c8nccn8C)cn7C)cn6C)cn5C)cn4C)cn3C)cn2C)cn1C [Polyamide 79, ImPyPyPy-3-(R)H^2Nγ-ImPyPyPy-NHMe-IPA]",liver and kidney histopathology,[1],"mild multifocal hepatocellular necrosis and apoptosis in the liver and mild variable tubular attenuation, karyomegaly and epithelial necrosis and apoptosis in the kidney"
same,liver and kidney serum markers,[1],elevated AST and ALT
same,weight and physical morbidity,[1]; three injections,no loss in weight or physical morbidities
same,Mean remaining parent NADPH-free,[2],100%
same,Mean remaining parent with NADPH,[2],91.9%
same,Mean remaining parent NADPH-free,[3],100%
same,Mean remaining parent with NADPH,[3],92.4%
same,weight loss after single SC dose,[4],significant weight loss only at 10 mg/kg
same,kidney histopathology,[4]; single SC 3 mg/kg,Moderate atypical tubular regeneration
same,liver histopathology,[4]; single SC 3 mg/kg,Mild hepatocellular necrosis and apoptosis
same,liver histopathology,[4]; single SC 10 mg/kg,diffuse hepatocellular necrosis and apoptosis
same,spleen histopathology,[4]; single SC 10 mg/kg,Mild lymphoid apoptosis in the white pulp of the spleen
same,serum kidney markers creatinine and BUN,[4]; single SC dose,elevated BUN at 10 mg/kg
same,"serum liver markers AST, ALT, total bilirubin",[4]; single SC dose,"severe elevation of AST, ALT, and total bilirubin at 10 mg/kg and to a lesser extent at 3 mg/kg"
CN(CCCNC(=O)c1cc(NC(=O)c2cc(NC(=O)c3cc(NC(=O)c4nc(NC(=O)C[C@H](CNC(=O)c5cc(NC(=O)c6cc(NC(=O)c7cc(NC(=O)c8nccn8C)cn7C)cn6C)cn5C)NC(=O)OCc5ccccc5)cn4C)cn3C)cn2C)cn1C)CCCNC(=S)Nc1ccc(-c2c3ccc(=O)cc-3oc3cc(O)ccc23)c(C(=O)O)c1 [Polyamide 86],cellular uptake with MG132,"LNCaP cells; 1 μM, 24 hours, 1 μM MG132",did not affect the cellular uptake
Cn1cc2cc1C(=O)NCCCC(=O)Nc1cn(C)c(n1)C(=O)Nc1cc(n(C)c1)C(=O)Nc1cc(n(C)c1)C(=O)Nc1cc(n(C)c1)C(=O)NCC[C@@H](N)C(=O)Nc1cn(C)c(n1)C(=O)Nc1cc(n(C)c1)C(=O)Nc1cc(n(C)c1)C(=O)N2 [Polyamide 87],bioavailability in serum after subcutaneous injection,[5],bioavailable after subcutaneous injection at 10 mg/kg
same,weight loss after single SC dose,[4],did not cause significant weight loss
same,overall toxicity / organ damage,"[4]; single SC 1, 3, 10 mg/kg",moderate damage to both the liver and kidney at 3 and 10 mg/kg
same,"serum liver markers AST, ALT, total bilirubin",[4]; single SC dose,caused levels of ALT and AST to increase in a dose dependent manner
CN(CCCNC(=O)c1cc(NC(=O)c2cc(NC(=O)c3cc(NC(=O)c4nc(NC(=O)[C@H](N)CCNC(=O)c5cc(NC(=O)c6cc(NC(=O)c7cc(NC(=O)c8nccn8C)cn7C)cn6C)cn5C)cn4C)cn3C)cn2C)cn1C)CCCNC(=S)Nc1ccc(-c2c3ccc(=O)cc-3oc3cc(O)ccc23)c(C(=O)O)c1 [Polyamide 88],nuclear localization in LNCaP cells,LNCaP cells,robust nuclear localization
CC(=O)N[C@H](CCNC(=O)c1cc(NC(=O)c2cc(NC(=O)c3cc(NC(=O)c4nccn4C)cn3C)cn2C)cn1C)C(=O)Nc1cn(C)c(C(=O)Nc2cc(C(=O)Nc3cc(C(=O)Nc4cc(C(=O)NCCCN(C)CCCNC(=S)Nc5ccc(-c6c7ccc(=O)cc-7oc7cc(O)ccc67)c(C(=O)O)c5)n(C)c4)n(C)c3)n(C)c2)n1 [Polyamide 90],nuclear localization in LNCaP cells,LNCaP cells,robust nuclear localization
same,nuclear fluorescence in liver sections,[6],less nuclear fluorescence in liver sections than the other FITC-polyamide conjugates
CC(=O)N[C@@H](CNC(=O)c1cc(NC(=O)c2cc(NC(=O)c3cc(NC(=O)c4nccn4C)cn3C)cn2C)cn1C)CC(=O)Nc1cn(C)c(C(=O)Nc2cc(C(=O)Nc3cc(C(=O)Nc4cc(C(=O)NCCCN(C)CCCNC(=S)Nc5ccc(-c6c7ccc(=O)cc-7oc7cc(O)ccc67)c(C(=O)O)c5)n(C)c4)n(C)c3)n(C)c2)n1 [Polyamide 91],nuclear fluorescence in liver sections,[6],the most intense nuclear fluorescence in liver sections
"CC(O)(CS(=O)(=O)c1ccc(F)cc1)C(=O)Nc1ccc(C#N)c(C(F)(F)F)c1 (stereo not shown) [bicalutamide, reference compound]",IC50,"[7]; Homo sapiens, LNCaP + DHT, read-out: IC50 for inhibition of PSA mRNA expression",0.9 µM
same,inhibition of DHT-induced PSA expression,[7],approximately 70%
same,inhibition of DHT-induced PSA expression,[7]; listed as Bicalutamide,≈ 70%
same,inhibition of DHT-induced expression of FKBP5,[8],~95%
same,Number of transcripts down-regulated (fold change ≦ −2.0),[9]; [11],602
same,Number of transcripts down-regulated (fold change ≦ −4.0),[9]; [11],133
same,Number of transcripts up-regulated (fold change ≧ 2.0),[9]; [11],611
same,Number of transcripts up-regulated (fold change ≧ 4.0),[9]; [11],96
same,number of transcripts affected by at least 2-fold,"[9]; 10 μM, P≦0.01, vs DHT-induced controls","1,213"
same,number of the 88 DHT-repressed transcripts derepressed at least 2-fold,[9]; P≦0.01,87
same,number of the 199 DHT-induced transcripts inhibited at least 2-fold,[9]; P≦0.01,186
same,Fold-change of FKBP5,[9]; [12],−36.4
same,Fold-change of KLK2,[9]; [12],−14.7
same,Fold-change of KLK3 (PSA),[9]; [12],−3.2
same,Fold-change of TMPRSS2,[9]; [12],−4.1
same,IC50,"[10]; LNAR + DHT, read-out: IC50 for inhibition of PSA mRNA expression",> 1000 µM
same,IC50,"[10]; LNAR − DHT, bicalutamide induces PSA mRNA in LNAR cells, read-out: IC50 for inhibition of PSA mRNA expression (value in parentheses)",3.5 µM
